In ChEMBL document CHEMBL1806441, “Discovery and synthesis of a new class of opioid ligand having a 3-azabicyclo[3.1.0]hexane core. An example of a 'magic methyl' giving a 35-fold improvement in binding” (Bioorg Med Chem Lett, 2011):
Active and inactive are the calls of the source. The rule behind the calls is not given here.

What was measured:
[1] = Binding affinity to dog mu opioid receptor; design: species or system Canis lupus familiaris
Mu-type opioid receptor [2] = molecular target: Mu-type opioid receptor (Homo sapiens, UniProt P35372); assay: Displacement of [3H]DAMGO from human mu opioid receptor
[3] = Binding affinity to dog delta opioid receptor; design: species or system Canis lupus familiaris
[4] = Binding affinity to dog kappa opioid receptor; design: species or system Canis lupus familiaris
Canis familiaris = assay: Antipruritic activity in dog with flea allergy dermatitis at 2 mg/kg, po upto 12 hrs; assay type: functional, organism-based; design: dose 2 mg/kg; settings: Canis lupus familiaris
CHO = assay: Genotoxicity in CHO cells by micronucleus assay; assay type: toxicity, cell-based, Cricetulus griseus; settings: chinese hamster
Mus musculus = assay: Inhibition of morphine-induced antinociception in ICR mouse assessed as antagonism of morphine response to heat-induced tail flick at 10 mg/kg, sc preincubated for 15 mins before the addition of morphine assessed after 30 mins; assay type: functional; settings: route subcutaneous
Mu-type opioid receptor [5] = molecular target: Mu-type opioid receptor (Cavia porcellus, UniProt P97266); assay: Antagonist activity at mu opioid receptor in guinea pig longitudinal muscle myenteric plexus assessed as inhibition of DAMGO-induced contraction after 10 mins; assay type: functional; settings: read-out: pA2 (converted)
Cytochrome P450 2D15 = molecular target: T1, Cytochrome P450 2D15 (Canis lupus familiaris, UniProt Q29473); assay: Inhibition of dog CYP2D15; assay type: ADME
T1 sequence (Q29473 whole entry): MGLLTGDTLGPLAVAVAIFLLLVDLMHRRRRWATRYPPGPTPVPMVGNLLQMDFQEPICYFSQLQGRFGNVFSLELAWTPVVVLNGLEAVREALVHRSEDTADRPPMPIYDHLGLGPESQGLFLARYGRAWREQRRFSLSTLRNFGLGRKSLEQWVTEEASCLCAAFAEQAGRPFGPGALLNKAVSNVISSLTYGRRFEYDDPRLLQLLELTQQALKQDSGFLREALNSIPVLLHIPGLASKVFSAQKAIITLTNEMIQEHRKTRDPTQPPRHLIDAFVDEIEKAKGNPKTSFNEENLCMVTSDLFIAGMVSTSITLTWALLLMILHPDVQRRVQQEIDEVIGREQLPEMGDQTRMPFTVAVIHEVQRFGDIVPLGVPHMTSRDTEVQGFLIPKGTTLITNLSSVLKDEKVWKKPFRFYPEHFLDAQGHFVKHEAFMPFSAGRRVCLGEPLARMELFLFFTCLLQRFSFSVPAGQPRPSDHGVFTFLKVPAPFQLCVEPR

Chain of Mu-type opioid receptor (Homo sapiens, UniProt P35372) (P35372 whole entry): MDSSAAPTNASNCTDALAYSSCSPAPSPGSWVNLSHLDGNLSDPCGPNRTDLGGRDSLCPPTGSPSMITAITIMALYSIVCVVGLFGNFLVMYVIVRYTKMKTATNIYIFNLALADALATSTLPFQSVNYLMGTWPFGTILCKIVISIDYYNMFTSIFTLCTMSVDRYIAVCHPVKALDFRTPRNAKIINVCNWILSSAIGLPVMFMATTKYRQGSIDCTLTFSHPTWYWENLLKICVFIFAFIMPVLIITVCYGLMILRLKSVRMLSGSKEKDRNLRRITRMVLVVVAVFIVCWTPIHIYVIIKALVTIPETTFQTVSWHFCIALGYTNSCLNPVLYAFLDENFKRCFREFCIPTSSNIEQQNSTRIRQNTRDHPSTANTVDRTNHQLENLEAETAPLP
Chain of Mu-type opioid receptor (Cavia porcellus, UniProt P97266) (P97266 whole entry): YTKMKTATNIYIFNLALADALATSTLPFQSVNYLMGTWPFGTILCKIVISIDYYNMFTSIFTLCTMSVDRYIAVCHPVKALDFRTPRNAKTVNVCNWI

Row | Compound | Ki [1] | Ki (Mu-type opioid receptor [2]) | Ki [3] | Ki [4] | Activity (Canis familiaris) | Activity (CHO) | inhibition in vivo at 10 mg/kg (Mus musculus) | Kb (Mu-type opioid receptor [5]) | inhibition (INH) (Cytochrome P450 2D15)
1 | CS(=O)(=O)Nc1cccc([C@H]2[C@@H]3CN(CCCc4ccccc4)C[C@@H]32)c1 | 0.379 µM | 0.168 µM | > 10 µM | 1.58 µM | – | – | – | – | –
2 | C[C@]1(c2cccc(NS(C)(=O)=O)c2)[C@@H]2CN(CCCc3ccccc3)C[C@@H]21 | 0.0041 µM | 0.00479 µM | 0.183 µM | 0.094 µM | Active | Non-toxic | 89% | 0.0107 µM | Active
